Experimental data taken from US20230228744A1, “DRY EYE DISEASE BIOMARKERS AND THEIR USE FOR TREATMENT” (Aldeyra Therapeutics, Inc., priority 2020, published 2023).
“Also recorded” adds a separate entry of the source.

Experiments:
[1] = test system: malondialdehyde (MDA) adducts in tears; assay: Phase 2a clinical study, MDA adduct competitive ELISA in tears; format: in vivo, human; details: 28 days (4 weeks) of treatment, pooled reproxalap groups
From the text: The study was to assess levels of malondialdehyde (MDA) adducts in tears collected from subjects with dry eye disease enrolled in a Phase 2a, randomized, double-masked, clinical study to assess the safety, tolerability, and pharmacodynamic activity of ADX-102 ophthalmic solution in subjects with dry eye diseases, also referred to herein as dry eye syndrome (DES).
Tears were collected during Visit 1, prior to treatment, and during Visit 3, following four weeks of treatment. Treatment groups consisted of ADX-102 Ophthalmic Solution (0.5%), ADX-102 Ophthalmic Solution (0.1%), and ADX-102 Ophthalmic Lipid Solution (0.5%). […]
The assay is a competitive ELISA. […] The plate is read in a microplate reader at 450 nm. The assay OD reading decreases with increasing MDA adducts in the samples, as the adsorbed MDA competes for binding to the MDA antibody with MDA adducts in the test sample. […]
DES Study Samples. Based on the results of the pilot assay, a 1:60 dilution was determined to maximize the likelihood of the OD values falling within the linear portion of the standard curve, and thus provide the most accurate results. All tear samples from subjects (0.5% ADX-102 Ophthalmic Solution) and (0.1% ADX-102 Ophthalmic Solution) were analyzed, but results from some tear samples were excluded from the data analysis due to contamination with ocular staining dye in the Visit 3 samples. […]

dry eye disease patients = assay: Phase 3 clinical trial (RENEW-Part 1), VAS ocular dryness score over 12-week chronic treatment; format: in vivo, human; details: 0.25% reproxalap, 12-week treatment, as early as one week after treatment initiation
From the text: Treatment Difference of induction-maintenance dosing, defined as the difference between the changes from baseline for the evaluated drug vs. vehicle (LS Mean Difference ±95% CI). Ocular Dryness Score co-primary endpoint assessed in pre-specified patient population having an OD4S dryness baseline score of ≥3 (N=170). […] […] Source: Reproxalap RENEW-Part 1 clinical trial results and TRANQUILITY Run-In Cohort initial results. VAS=Visual Analog Scale; OD4S=Ocular Discomfort & 4-Symptom; CAC=Conjunctival Allergen Challenge; MMRM=Mixed Effect Model Repeated Measures.

CC(C)(O)c1nc2ccc(Cl)cc2cc1N [reproxalap, Reproxalap]
tear MDA adduct / RASP levels after treatment relative to baseline (pooled groups) [1]: reduction in tear RASP levels; also recorded: statistically lower | symptom improvements over vehicle (VAS ocular dryness score and multiple symptoms) (dry eye disease patients): statistically significant symptom improvements
